Literature values as cited in patent US6470305B1, “Chemical analysis by morphological similarity” (priority 1998, dated 2002).

Biological target: CDK2 (Homo sapiens, UniProt P24941)
Conditions: weak inhibitor; value from Kim et al., Prog Cell Cycle Res (1996); read-out: IC50 versus CDK2

- IC50: 50 µM
Structure (SMILES): CC(C)=CCNc1ncnc2nc[nH]c12 [IPA, isopentenyl adenine]
